Results: the Deep4Chem optical property database

Assay: solvent given as SMILES

c1ccc(-c2nc(-c3ccc(-c4cncc5ccccc45)cc3)[nH]c2-c2ccccc2)cc1
absorption maximum (in C1CCOC1): 333 nm

C[N+]1=C(/C=C/C2=C3Oc4c(cc5c6c4CCCN6CCC5)C(c4ccccc4C(=O)O)=C3CCC2)C(C)(C)c2c1ccc1ccccc21
absorption maximum (in CC#N): 742 nm
absorption maximum (in CCO): 728 nm
absorption maximum (in CO): 730 nm
absorption maximum (in ClC(Cl)Cl): 746 nm

Cc1cc(O)c(-c2[nH]c(=O)n3c2-c2ccccc2C3=O)cc1Cl
absorption maximum (in CC#N): 393 nm
absorption maximum (in CO): 395 nm
absorption maximum (in ClCCl): 399 nm

CCN(CC)/C(C)=N\c1ccc2c3c(cccc13)C(=O)c1ccccc1-2
absorption maximum (in C1CCOC1): 472 nm
absorption maximum (in CCCCCC): 444 nm
absorption maximum (in CCO): 473 nm
absorption maximum (in CCOC(C)=O): 463 nm
absorption maximum (in CN(C)C=O): 479 nm
absorption maximum (in CO): 472 nm
absorption maximum (in Cc1ccccc1): 461 nm
absorption maximum (in ClC(Cl)(Cl)Cl): 467 nm
absorption maximum (in ClC(Cl)Cl): 467 nm
absorption maximum (in ClCCl): 467 nm
absorption maximum (in c1ccccc1): 462 nm

O=C1c2ccccc2-c2nc3c4ccccc4c4ccccc4c3n21
absorption maximum (in ClCCl): 441 nm

Nc1cccc2c1-c1ccccc1C2=O
absorption maximum (in C1CCCCC1): 427 nm
absorption maximum (in CC#N): 451 nm
absorption maximum (in CCO): 458 nm
absorption maximum (in c1ccccc1): 440 nm

O=c1oc2ccccc2nc1-c1ccc(Cl)cc1
absorption maximum (in c1ccccc1): 344 nm

CSc1ccc2c(c1)N(CCCN1CCN(C)CN1C)c1ccccc1S2
absorption maximum (in CC#N): 316 nm
absorption maximum (in CO): 314 nm
absorption maximum (in O): 312 nm

CCCC1=Cc2nc1ccc1[nH]c(cc1CCC)c1nc(c(OC(C)=O)cc3[nH]c2cc3CCC)C(CCC)=C1
absorption maximum (in Cc1ccccc1): 645 nm

CN(C)c1ccccc1
absorption maximum (in C1CCCCC1): 293.94 nm

Cc1ccc(C)c(C)c1
absorption maximum (in C1CCCCC1): 263.78 nm

CN(C)c1ccc(C#Cc2ccc3ccc(=O)oc3c2)cc1
absorption maximum (in CC#N): 333 nm

COc1cc2c(cc1OC)C1=C[C@H](c3ccc(C)cc3)C3(C(C#N)=C(C#N)N1CC2)c1ccccc1-c1ccccc13
absorption maximum (in ClCCl): 317 nm

Cc1cc(C)c(-c2nnc(-c3ccc(-n4c5ccccc5c5ccccc54)c(C)c3)o2)c(C)c1
absorption maximum (in Cc1ccccc1): 339 nm

CCN(CC)c1ccc2cc(/C=C/C3=C4CC/C(=C\c5cc6ccc(N(CC)CC)cc6oc5=O)C4=[O+][B-](F)(F)O3)c(=O)oc2c1
absorption maximum (in C1COCCO1): 629 nm
absorption maximum (in CC#N): 655 nm
absorption maximum (in CC(C)=O): 653 nm
absorption maximum (in CCOC(C)=O): 636 nm
absorption maximum (in CN(C)C=O): 673 nm
absorption maximum (in CS(C)=O): 690 nm
absorption maximum (in Cc1ccccc1): 629 nm
absorption maximum (in ClC(Cl)Cl): 644 nm
absorption maximum (in ClCCl): 653 nm

CN(C)c1ccc(/C=C/C=C/c2ccc(C#N)cc2)cc1
absorption maximum (in CC#N): 402 nm
absorption maximum (in CCCC#N): 410 nm
absorption maximum (in CCCCCC): 400 nm
absorption maximum (in CCOCC): 400 nm

C(=C\c1ncc(-c2ccc(OCc3ccccc3)c(OCc3ccccc3)c2)o1)/c1cccc(N2CCN(c3ccccc3)CC2)c1
absorption maximum (in ClCCl): 355 nm

COC(=O)c1c(NC(C)(C)C)oc(-c2ccc(-c3ccccc3)cc2)c1C(=O)OC
absorption maximum (in CC#N): 355 nm

O=C1CC(c2ccc(C(F)(F)F)cc2)c2c(c3ccccc3c3nc4ccccc4nc23)O1 (configuration not stated)
absorption maximum (in ClC(Cl)Cl): 409 nm

c1cc2ccc1CCCc1ccc(c3nsnc13)CCC2
absorption maximum (in C1CCCCC1): 378 nm
absorption maximum (in CC#N): 384 nm
absorption maximum (in ClC(Cl)Cl): 384 nm

c1ccc2c(c1)-c1ccccc1C21c2ccccc2-c2c1c1c3ccccc3ccc1c1ccccc21
absorption maximum (in C1CCOC1): 377 nm

COc1cc(-c2nc3c4cccnc4c4ncccc4c3[nH]2)c(OC)cc1/C=C/c1nc2ccccc2[nH]1
absorption maximum (in C1CCOC1): 401 nm
absorption maximum (in CC#N): 398 nm
absorption maximum (in CO): 391 nm
absorption maximum (in ClCCl): 400 nm

CCOC(=O)/C=C/C1=C(c2ccc(C)cc2)C2=Nc3c(-c4ccc(C)cc4)cc(-c4ccc(C)cc4)n3[B-](F)(F)[N+]2=C1c1ccc(C)cc1
absorption maximum (in ClC(Cl)Cl): 663 nm

CCCCNc1ccc2n1[B-](F)(F)[N+]1=CC(/C=C/C(=O)OC(C)(C)C)=CC1=C2c1c(C)cc(C)cc1C
absorption maximum (in ClCCl): 499 nm

F[B-]1(F)n2c(-c3ccccc3)cc(-c3ccccc3)c2N=C2C(c3ccccc3)=CC(c3ccccc3)=[N+]21
absorption maximum (in CC#N): 643 nm
absorption maximum (in ClC(Cl)Cl): 650 nm

CN(C)c1ccc2c3c(ccc2c1)C(=O)CCC3
absorption maximum (in C1CCCCC1): 347 nm
absorption maximum (in CC#N): 356 nm
absorption maximum (in CC(C)O): 368 nm
absorption maximum (in CCC(C)=O): 356 nm
absorption maximum (in CCO): 369 nm
absorption maximum (in CCOC(C)=O): 353 nm
absorption maximum (in CS(C)=O): 363 nm
absorption maximum (in Cc1ccccc1): 353 nm
absorption maximum (in ClCCl): 358 nm
absorption maximum (in Clc1ccccc1): 357 nm

COc1ccc(-c2nnc(-c3cc(-c4nnc(-c5ccc(OC)cc5)o4)c(-n4c5ccccc5c5ccccc54)cc3-n3c4ccccc4c4ccccc43)o2)cc1
absorption maximum (in Cc1ccccc1): 371 nm

O=C(O)c1ccccc1-c1nc(-c2ccccc2)c2ccccn12
absorption maximum (in CC#N): 357 nm

CCCCCCCCN1c2ccc(C#Cc3ccc(OC)cc3)cc2Sc2cc(C=O)ccc21
absorption maximum (in C1CCOC1): 378 nm
absorption maximum (in CC#N): 380.01 nm
absorption maximum (in CCCCCC): 374 nm
absorption maximum (in CO): 351.11 nm
absorption maximum (in CS(C)=O): 383.45 nm
absorption maximum (in Cc1ccccc1): 383 nm
absorption maximum (in ClC(Cl)Cl): 382.5 nm

COc1cc2c(cc1-c1ccc(C(F)(F)F)cc1)Cc1c3c(c4c(c1-2)-c1cc(OC)c(-c2ccc(C(F)(F)F)cc2)cc1C4)C(=O)N(CCC(C)C)C3=O
absorption maximum (in C1CCOC1): 404 nm

O=C(Cc1ccccc1)OCc1ccc2c3cccc4cccc(c5cccc1c52)c43
absorption maximum (in CCO): 438 nm

CC(C)(C)NC(=O)c1c([Si](C)(C)C)cc2ccc3cccc4ccc1c2c34
absorption maximum (in ClC(Cl)Cl): 382 nm

c1cc2c3c(cccc3c1)-c1cc3c(ccc4ccccc43)cc1-2
absorption maximum (in CCCCCCC): 405 nm

Cc1cc(=O)oc2cc3cc(-c4cn(Cc5ccccc5)nn4)ccc3cc12
absorption maximum (in CCO): 339 nm

CCOC(=O)CCCCCn1c2ccccc2c(=O)c2cc3c(cc21)c(=O)c1cc(I)ccc1n3CCCCCC(=O)OCC
absorption maximum (in CO): 535 nm

N#CC1=CC=CC(C#N)=P1(c1ccccc1)c1ccccc1
absorption maximum (in ClC(Cl)Cl): 458 nm

CCCCC(CC)COc1cc(OCC(CC)CCCC)c2c#cc3ccc4sc5ccc(c#cc6cc(c#cc7ccc8sc9ccc(c#cc1c2)cc9c8c7)c(C(CCCC)OCCC)cc6C(CCCC)OCCC)cc5c4c3 (configuration not stated)
absorption maximum (in ClCCl): 333 nm

CCCCC1(CCCC)c2cc(C#Cc3ccc(/C=C(\C)c4ccccc4)cc3)ccc2-c2ccc(C#Cc3ccc(/C=C(\C)c4ccccc4)cc3)cc21
absorption maximum (in C1CCOC1): 365 nm

CN(C)c1ccc(-c2nc3nccnc3n2-c2ccc(N(C)C)cc2)cc1
absorption maximum (in CC#N): 371 nm

CN(C)c1ccc2nc3c(cc2c1)c(-c1ccccc1)nn3-c1ccccc1
absorption maximum (in C1CCCCC1): 439.56 nm
absorption maximum (in C1CCOC1): 450.05 nm
absorption maximum (in CC#N): 449.24 nm
absorption maximum (in CC(C)=O): 450.45 nm
absorption maximum (in CCCCCl): 448.43 nm
absorption maximum (in CCCCOCCCC): 444.64 nm
absorption maximum (in CN(C)C=O): 452.69 nm

COc1cc(-c2nnc(-c3ccc4ccc5cccc6ccc3c4c56)o2)cc(OC)c1OC
absorption maximum (in C1CCOC1): 393 nm
absorption maximum (in CC1CCCCC1): 392 nm
absorption maximum (in CC#N): 391 nm
absorption maximum (in CCCCCC): 392 nm
absorption maximum (in Cc1ccccc1): 396 nm
absorption maximum (in ClC(Cl)Cl): 396 nm

O=C([O-])c1ccc(C2=c3cc4c5c(c3Oc3c2cc2c6c3CCCN6CCC2)CCC[N+]=5CCC4)c(C(=O)[O-])c1
absorption maximum (in CCO): 573 nm
absorption maximum (in O): 574 nm

COc1cc(OC)c2c(c1)C(=O)c1cc(OC)cc(OC)c1-2
absorption maximum (in C1CCCCC1): 489 nm
absorption maximum (in CC#N): 504 nm
absorption maximum (in CCO): 506 nm

C#CCN1C(=O)/C(=C/c2cc(OC(C)C)ccc2OC(C)C)N=C1C
absorption maximum (in C1COCCO1): 396 nm
absorption maximum (in CC#N): 395 nm
absorption maximum (in CC(C)=O): 394 nm
absorption maximum (in CCCCCC): 392 nm
absorption maximum (in CCCCO): 400 nm
absorption maximum (in CCCO): 400 nm
absorption maximum (in CCO): 399 nm
absorption maximum (in CCOC(C)=O): 393 nm
absorption maximum (in CN(C)C=O): 399 nm
absorption maximum (in CO): 398 nm
absorption maximum (in CS(C)=O): 401 nm

C(#Cc1ccc2ncsc2c1)c1ccc(N(c2ccccc2)c2ccccc2)cc1
absorption maximum (in Cc1ccccc1): 365 nm

COc1ccc(-n2nc(C#N)c(N3CCCC3)n2)cc1
absorption maximum (in CC#N): 340 nm
absorption maximum (in CCCCCC): 335 nm
absorption maximum (in CCO): 339 nm
absorption maximum (in CN(C)C=O): 343 nm
absorption maximum (in CO): 340 nm
absorption maximum (in ClC(Cl)Cl): 342 nm

O=C1c2ccccc2-c2c(-c3ccccc3O)[nH]c(=O)n21
absorption maximum (in CC#N): 393 nm
absorption maximum (in CO): 396 nm
absorption maximum (in ClCCl): 394 nm

CN1C(=CC2=C([O-])C(=Cc3sc4ccccc4[n+]3C)C2=C(C#N)C#N)Sc2ccccc21
absorption maximum (in ClC(Cl)Cl): 703 nm

COc1cc(C2=C(c3ccc(C(C)(C)C)cc3)C(c3ccc(C(C)(C)C)cc3)=[N+]3C2=Nc2c(-c4cc(OC)c(OC)c(OC)c4)c(-c4ccc(C(C)(C)C)cc4)c(-c4ccc(C(C)(C)C)cc4)n2[B-]3(F)F)cc(OC)c1OC
absorption maximum (in Cc1ccccc1): 675 nm

CC[n+]1c(-c2ccccc2)c2cc(NC(=O)NCC[NH3+])ccc2c2ccc(NC(=O)NCC[NH3+])cc21
absorption maximum (in O): 438 nm

O=c1ccc2ccc(C#Cc3ccccc3)cc2o1
absorption maximum (in CC#N): 300 nm

Cc1ccc(/N=C2\N=C(N)c3cccc4cccc2c34)cc1
absorption maximum (in ClCCl): 349 nm

FC(F)(F)c1ccc(B2c3ccccc3Nc3ccccc32)c(C(F)(F)F)c1
absorption maximum (in ClCCl): 388 nm

CCOC(=O)c1sc(SC)c2c(=O)[nH]nnc12
absorption maximum (in C1CCOC1): 380.5 nm
absorption maximum (in CC#N): 381 nm
absorption maximum (in CCO): 385 nm
absorption maximum (in CN(C)C=O): 389 nm
absorption maximum (in CO): 384.5 nm
absorption maximum (in CS(C)=O): 387.5 nm

Oc1ccc2ccccc2c1-c1nc(-c2ccccc2)c2ccccn12
absorption maximum (in C1CCCCC1): 361 nm
absorption maximum (in CC#N): 355 nm
absorption maximum (in CO): 343 nm
absorption maximum (in ClCCl): 362 nm
absorption maximum (in O): 355 nm
